Read-outs that look alike come from different tables or passages of the source.
Columns and labels:
[1] = test system: patients with Wilson disease (WD)
From the text: The UWDRS Part II total score results for this pooled population are presented in Table 16 and FIG. 13 and the UWDRS Part III total score results are in Table 17 and FIG. 14. The UWDRS Part III Functional Subscale (comprised of the items arising from a chair, gait, handwriting and speech) results for this pooled population are presented in Table 18 and FIG. 15.

copper = test system: copper
Protocol: Study 204 is registered with ClinicalTrials.gov, number NCT04573309, and is described in Example 1 of U.S. Provisional Patent Application No. 63/237,120, filed Aug. 25, 2021, and incorporated by reference herein. […] The participants remained on a Cu-controlled diet, and Cu and Mo balance were measured on all intake (i.e., investigational agent, food and fluids) and all output (urine and feces). The Cu and Mo concentration of each sample was determined by inductively coupled plasma mass spectrometry (ICP-MS). Copper and Mo content of all intake and output was calculated based on the volume or weight of intake and output and the concentration of representative samples.
Collection periods for feces and urine varied in duration from 3 to 15 days to support assessment of both Cu and Mo balance before and at steady state for both 15 mg and 30 mg. Equilibration periods on Cu/Mo-controlled diets were a minimum of 48 hours. Copper balance was calculated as the mean daily Cu balance over each of the 4 collection periods. The interpretation of Cu balance was based on the criteria previously established when undertaking Cu balance studies with zinc treatment.
These participants had all intake (food and drink) and output (urine and feces) collected from Day-4 through Day-1 (baseline), from Day 1 through Day 8, and Day 25 through Day 39.

[2] = Study 204, Days 1-8 (Accumulation 15 mg/day)
[3] = Study 204, Days 25-28 (Steady State 15 mg/day)
[4] = Study 204, Days 31-35 (Accumulation 30 mg/day)
[5] = Study 204, Days 36-39 (Steady State 30 mg/day)

## Bis-choline tetrathiomolybdate [BC-TTM]
[1]; BC-TTM exposure 4 wks
  UWDRS Part III (Range 0-175) LSM change from baseline: −0.83
  UWDRS Part III (Range 0-175) Mean change from baseline: −0.72
  UWDRS Part III Functional Subscale (Range 0-10) LSM change from baseline: −0.083
  UWDRS Part III Functional Subscale (Range 0-10) Mean change from baseline: −0.072
[1]; BC-TTM exposure 12 wks
  UWDRS Part III (Range 0-175) LSM change from baseline: −1.13
  UWDRS Part III (Range 0-175) Mean change from baseline: −1.11
  UWDRS Part III Functional Subscale (Range 0-10) LSM change from baseline: −0.141
  UWDRS Part III Functional Subscale (Range 0-10) Mean change from baseline: −0.137
[1]; BC-TTM exposure 24 wks
  UWDRS Part III (Range 0-175) LSM change from baseline: −1.10
  UWDRS Part III (Range 0-175) Mean change from baseline: −0.97
  UWDRS Part III Functional Subscale (Range 0-10) LSM change from baseline: −0.146
  UWDRS Part III Functional Subscale (Range 0-10) Mean change from baseline: −0.157
[1]; BC-TTM exposure 36 wks
  UWDRS Part III (Range 0-175) LSM change from baseline: −1.85
  UWDRS Part III (Range 0-175) Mean change from baseline: −2.38
  UWDRS Part III Functional Subscale (Range 0-10) LSM change from baseline: −0.202
  UWDRS Part III Functional Subscale (Range 0-10) Mean change from baseline: −0.286
[1]; BC-TTM exposure 48 wks
  UWDRS Part III (Range 0-175) LSM change from baseline: −2.76
  UWDRS Part III (Range 0-175) Mean change from baseline: −3.37
  UWDRS Part III Functional Subscale (Range 0-10) LSM change from baseline: −0.285
  UWDRS Part III Functional Subscale (Range 0-10) Mean change from baseline: −0.345
[1]; BC-TTM exposure 60 wks
  UWDRS Part III (Range 0-175) LSM change from baseline: −3.24
  UWDRS Part III (Range 0-175) Mean change from baseline: −2.00
  UWDRS Part III Functional Subscale (Range 0-10) LSM change from baseline: −0.355
  UWDRS Part III Functional Subscale (Range 0-10) Mean change from baseline: −0.422
[1]; BC-TTM exposure 72 wks
  UWDRS Part III (Range 0-175) LSM change from baseline: −4.43
  UWDRS Part III (Range 0-175) Mean change from baseline: −4.93
  UWDRS Part III Functional Subscale (Range 0-10) LSM change from baseline: −0.399
  UWDRS Part III Functional Subscale (Range 0-10) Mean change from baseline: −0.494
[1]; BC-TTM exposure 96 wks
  UWDRS Part III (Range 0-175) LSM change from baseline: −6.32
  UWDRS Part III (Range 0-175) Mean change from baseline: −7.95
  UWDRS Part III Functional Subscale (Range 0-10) LSM change from baseline: −0.607
  UWDRS Part III Functional Subscale (Range 0-10) Mean change from baseline: −0.900
[1]; BC-TTM exposure 120 wks
  UWDRS Part III (Range 0-175) LSM change from baseline: −6.69
  UWDRS Part III (Range 0-175) Mean change from baseline: −8.92
  UWDRS Part III Functional Subscale (Range 0-10) LSM change from baseline: −0.660
  UWDRS Part III Functional Subscale (Range 0-10) Mean change from baseline: −0.946
[1]; BC-TTM exposure 144 wks
  UWDRS Part III (Range 0-175) LSM change from baseline: −7.70
  UWDRS Part III (Range 0-175) Mean change from baseline: −9.78
  UWDRS Part III Functional Subscale (Range 0-10) LSM change from baseline: −0.803
  UWDRS Part III Functional Subscale (Range 0-10) Mean change from baseline: −1.042
[1]; BC-TTM exposure 168 wks
  UWDRS Part III (Range 0-175) LSM change from baseline: −9.48
  UWDRS Part III (Range 0-175) Mean change from baseline: −18.08
  UWDRS Part III Functional Subscale (Range 0-10) LSM change from baseline: −0.903
  UWDRS Part III Functional Subscale (Range 0-10) Mean change from baseline: −1.841
[1]; BC-TTM exposure 192 wks
  UWDRS Part III (Range 0-175) LSM change from baseline: −6.13
  UWDRS Part III (Range 0-175) Mean change from baseline: −12.65
  UWDRS Part III Functional Subscale (Range 0-10) LSM change from baseline: −0.437
  UWDRS Part III Functional Subscale (Range 0-10) Mean change from baseline: −1.250
[1]; BC-TTM exposure 216 wks
  UWDRS Part III (Range 0-175) LSM change from baseline: −6.52
  UWDRS Part III (Range 0-175) Mean change from baseline: −16.17
  UWDRS Part III Functional Subscale (Range 0-10) LSM change from baseline: −0.430
  UWDRS Part III Functional Subscale (Range 0-10) Mean change from baseline: −1.519
[1]; BC-TTM exposure 240 wks
  UWDRS Part III (Range 0-175) LSM change from baseline: −6.49
  UWDRS Part III (Range 0-175) Mean change from baseline: 11.48
  UWDRS Part III Functional Subscale (Range 0-10) LSM change from baseline: −0.607
  UWDRS Part III Functional Subscale (Range 0-10) Mean change from baseline: −0.898
[1]; BC-TTM exposure 264 wks
  UWDRS Part III (Range 0-175) LSM change from baseline: −9.57
  UWDRS Part III (Range 0-175) Mean change from baseline: −14.00
  UWDRS Part III Functional Subscale (Range 0-10) LSM change from baseline: −0.818
  UWDRS Part III Functional Subscale (Range 0-10) Mean change from baseline: −0.995
[1]; Baseline, observed value
  UWDRS Part III (Range 0-175) Mean: 15.43
  UWDRS Part III Functional Subscale (Range 0-10) Mean: 1.590
[1]; Pooled Studies 301 and 201
  UWDRS Part II, Part III and Part III Functional Subscale scores over up to 5 years: continuing improvement
[1]; Pooled Studies 301 and 201, BC-TTM exposure 4 weeks
  UWDRS Part II Score (Range 0-40), change from baseline, Mean (SD): −0.3 (2.28)
[1]; Pooled Studies 301 and 201, BC-TTM exposure 12 weeks
  UWDRS Part II Score (Range 0-40), change from baseline, Mean (SD): −0.4 (2.76)
[1]; Pooled Studies 301 and 201, BC-TTM exposure 24 weeks
  UWDRS Part II Score (Range 0-40), change from baseline, Mean (SD): −0.4 (3.42)
[1]; Pooled Studies 301 and 201, BC-TTM exposure 36 weeks
  UWDRS Part II Score (Range 0-40), change from baseline, Mean (SD): −0.9 (4.11)
[1]; Pooled Studies 301 and 201, BC-TTM exposure 48 weeks
  UWDRS Part II Score (Range 0-40), change from baseline, Mean (SD): −1.2 (4.24)
[1]; Pooled Studies 301 and 201, BC-TTM exposure 60 weeks
  UWDRS Part II Score (Range 0-40), change from baseline, Mean (SD): −1.4 (4.35)
[1]; Pooled Studies 301 and 201, BC-TTM exposure 72 weeks
  UWDRS Part II Score (Range 0-40), change from baseline, Mean (SD): −1.9 (4.74)
[1]; Pooled Studies 301 and 201, BC-TTM exposure 96 weeks
  UWDRS Part II Score (Range 0-40), change from baseline, Mean (SD): −2.5 (6.11)
[1]; Pooled Studies 301 and 201, BC-TTM exposure 120 weeks
  UWDRS Part II Score (Range 0-40), change from baseline, Mean (SD): −3.1 (6.82)
[1]; Pooled Studies 301 and 201, BC-TTM exposure 144 weeks
  UWDRS Part II Score (Range 0-40), change from baseline, Mean (SD): −3.3 (6.61)
[1]; Pooled Studies 301 and 201, BC-TTM exposure 168 weeks
  UWDRS Part II Score (Range 0-40), change from baseline, Mean (SD): −6.2 (10.17)
[1]; Pooled Studies 301 and 201, BC-TTM exposure 192 weeks
  UWDRS Part II Score (Range 0-40), change from baseline, Mean (SD): −5.9 (9.88)
[1]; Pooled Studies 301 and 201, BC-TTM exposure 216 weeks
  UWDRS Part II Score (Range 0-40), change from baseline, Mean (SD): −7.1 (10.90)
[1]; Pooled Studies 301 and 201, BC-TTM exposure 240 weeks
  UWDRS Part II Score (Range 0-40), change from baseline, Mean (SD): −6.6 (10.09)
[1]; Pooled Studies 301 and 201, BC-TTM exposure 264 weeks
  UWDRS Part II Score (Range 0-40), change from baseline, Mean (SD): −6.2 (9.02)
copper; [2]
  Daily Net Copper Balance, Change from Baseline, Median (IQR): −0.4291 (0.2176) mg
  Daily Net Copper Balance, Value, Mean (SD): 0.7654 (0.3538) mg
  Daily Net Copper Balance, Value, Median (IQR): 0.6678 (0.6871) mg
  Increase from Baseline in Average Daily Fecal Copper Excretion, Mean (SD): 0.3278 (0.319) mg
  Increase from Baseline in Average Daily Urine Copper Excretion, Mean (SD): −0.0108 (0.01119) mg
copper; [3]
  Daily Net Copper Balance, Change from Baseline, Median (IQR): −0.1459 (1.0434) mg
  Daily Net Copper Balance, Value, Mean (SD): 0.7638 (0.9138) mg
  Daily Net Copper Balance, Value, Median (IQR): 1.1434 (1.7052) mg
  Increase from Baseline in Average Daily Fecal Copper Excretion, Mean (SD): 0.4931 (0.4955) mg
  Increase from Baseline in Average Daily Urine Copper Excretion, Mean (SD): 0.1042 (0.08556) mg
copper; [4]
  Daily Net Copper Balance, Change from Baseline, Median (IQR): −0.3707 (0.1093) mg
  Daily Net Copper Balance, Value, Mean (SD): 0.8577 (0.3427) mg
  Daily Net Copper Balance, Value, Median (IQR): 0.8312 (0.6838) mg
  Increase from Baseline in Average Daily Fecal Copper Excretion, Mean (SD): 0.3879 (0.4193) mg
  Increase from Baseline in Average Daily Urine Copper Excretion, Mean (SD): 0.0744 (0.05427) mg
copper; [5]
  Daily Net Copper Balance, Change from Baseline, Median (IQR): −0.4225 (0.2275) mg
  Daily Net Copper Balance, Value, Mean (SD): 0.8582 (0.2565) mg
  Daily Net Copper Balance, Value, Median (IQR): 0.7986 (0.5024) mg
  Increase from Baseline in Average Daily Fecal Copper Excretion, Mean (SD): 0.0899 (0.2021) mg
  Increase from Baseline in Average Daily Urine Copper Excretion, Mean (SD): 0.1042 (0.04328) mg
copper; Study 204, Table 10, Days 1-8 (Accumulation 15 mg/day)
  Daily Net Copper Balance, Change from Baseline, Mean (SD): −0.4848 (0.119) mg
copper; Study 204, Table 10, Days 25-28 (Steady State 15 mg/day)
  Daily Net Copper Balance, Change from Baseline, Mean (SD): −0.4865 (0.5993) mg
copper; Study 204, Table 10, Days 31-35 (Accumulation 30 mg/day)
  Daily Net Copper Balance, Change from Baseline, Mean (SD): −0.3925 (0.05781) mg
copper; Study 204, Table 10, Days 36-39 (Steady State 30 mg/day)
  Daily Net Copper Balance, Change from Baseline, Mean (SD): −0.3921 (0.1168) mg
copper; Study 204, Table 13, Days 1-8 (Accumulation 15 mg/day)
  Decrease from Baseline in Average Daily Net Copper Balance, Change from Baseline Mean (SD): −0.4848 (0.119) mg
copper; Study 204, Table 13, Days 1-39
  Decrease from Baseline in Average Daily Net Copper Balance, Change from Baseline Mean (SD): −0.448 (0.1469) mg
copper; Study 204, Table 13, Days 25-28 (Steady State 15 mg/day)
  Decrease from Baseline in Average Daily Net Copper Balance, Change from Baseline Mean (SD): −0.6381 (0.7673) mg
copper; Study 204, Table 13, Days 31-35 (Accumulation 30 mg/day)
  Decrease from Baseline in Average Daily Net Copper Balance, Change from Baseline Mean (SD): −0.3925 (0.05781) mg
copper; Study 204, Table 13, Days 36-39 (Steady State 30 mg/day)
  Decrease from Baseline in Average Daily Net Copper Balance, Change from Baseline Mean (SD): −0.2765 (0.3138) mg
